Measured values taken from article PMC10654507, “A cleavable chimeric peptide with targeting and killing domains enhances LPS neutralization and antibacterial properties against multi-drug resistant E. coli” (Communications Biology, 2023).
Residues, ends and D or L forms follow the SMILES beside them.

Columns and labels:
MDR E. coli CVCC195 [1] = test: Antibacterial activity after incubation in mouse serum (inhibition zone); format: cell-based, Escherichia coli; conditions: until 8 h of incubation
Protocol: Serum stability of R7 and its parent-L7 was tested as previously described with minor modifications[46],[53]. Briefly, each peptide was added to the 25% mouse serum to a final concentration of 0.5 mM; 250 µL aliquots of samples were taken at 0, 0.5, 1, 2, 4 and 8 h, and mixed with 20 µL 15% trichloroacetic acid (TCA). The samples were incubated at 4 °C for 15 min and centrifuged for 10 min at 12,000 rpm. The supernatants were analyzed by RP-HPLC or inhibition zone method. Moreover, after incubation in serum for 2 h, R7 was analyzed by matrix assisted laser desorption/ionization-time of flight mass spectrometry (MALDI-TOF MS) and high-performance liquid chromatography-mass spectrometry (HPLC-MS), respectively.

furin = tested on: T1, furin; test: Cleavage of R7 by furin in vitro (RP-HPLC); format: in vitro ADME; conditions: human, recombinant human furin enzyme, furin 8 U/reaction, 25 °C, RP-HPLC peak area, read-out: Cleavage efficiency
T1 construct: purchased NEB (New England Biolabs) P8077
Protocol: Chimeric peptide R7 was treated with recombinant human furin enzyme (8 U/reaction; NEB P8077) in 50-μL reactions supplemented with in 20 mM HEPES, 0.1% Triton X-100, 1 mM CaCl2, 0.2 mM β-mercaptoethanol. The reaction mixtures were incubated at 25 °C for 65 h. An aliquot of 50 μL sample was taken at different time points, and analyzed by RP-HPLC or MALDI-TOF MS. […] The cleavage rate of R7 was calculated from the peak area as follows: Cleavage rate (%) = [(Area0 –Areat)/Area0] × 100, where 0 and t present digestion time[58].

[2] = Detection of R7 in mouse blood after injection (RP-HPLC); format: in vivo; conditions: R7 10 ~ 50 mg/kg intraperitoneal, intravenous or subcutaneous, blood at 5, 30, 60 and 120 min
Protocol: To further study the cleavage efficiency of chimeric peptide R7, the mice were injected with R7 (10 ~ 50 mg/kg) by different routes, including intraperitoneal, intravenous or subcutaneous ones, respectively; blood was taken from the orbits at different time (5, 30, 60, and 120 min, respectively) and detected by RP-HPLC. […] Here are several conditions that may negatively impact RP-HPLC detection results: (i) R7 may bind to other proteins such as plasma protein and form aggregates; (ii) the concentration of R7 after cleavage was too low to detect target peptide by RP-HPLC; (iii) R7 may be degraded by some cellular proteases present in serum in vivo[45]. Furthermore, we used more sensitive liquid chromatograph mass spectrometer (LC-MS) to detect R7 and its possible degradation products in mice. […] We further used MALDI-TOF MS with higher resolution to analyze R7 degradation products in blood. As shown in Supplementary Table 5, R7 was cleaved into two dual-function fragments in the serum principally, including one from position 1 to 15 that can target LPS and the other mainly from position 18 to 35 that has antibacterial activity. […] In addtion, in vivo stability of peptides in blood has been well modeled by ex vivo stability in serum. […] In fact, several strategies have been proposed to improve the stability of AMPs. […]

MDR E. coli CVCC195 [3] = test: Efficacy of different doses of R7 in mice challenged with MDR E. coli (survival); format: in vivo, mouse; parameters: key: 1 represents a mouse death; 0 represents no death; conditions: Supplementary Fig. 4 source data, MDR E. coli challenge
Protocol: Supplementary Figure 4. Eﬀicacy of different doses of cleavable chimeric peptide R7 in the mice
challenged with MDR E. coli. Mice were intraperitoneally injected with 3.5, 7 or 14 μmol/kg R7 at 0
h (five mice/group), followed by injection with MDR E. coli CVCC195 (0.5×10^9 CFU/mouse) at 6 h.
PBS was used as control. Survival was recorded for 7 d.

CSCC[C@H](NC(=O)[C@H](CCCNC(=N)N)NC(=O)[C@H](Cc1c[nH]c2ccccc12)NC(=O)[C@H](C)NC(=O)[C@H](Cc1c[nH]c2ccccc12)NC(=O)[C@H](CCCNC(=N)N)NC(=O)[C@H](Cc1c[nH]c2ccccc12)NC(=O)[C@H](C)NC(=O)[C@H](CCCCN)NC(=O)[C@H](Cc1ccccc1)NC(=O)[C@H](CCCNC(=N)N)NC(=O)[C@H](CCCNC(=N)N)NC(=O)[C@H](CCCCN)NC(=O)[C@H](CCCNC(=N)N)NC(=O)[C@H](CCCCN)NC(=O)[C@H](Cc1ccccc1)NC(=O)[C@H](Cc1ccccc1)NC(=O)[C@H](CO)NC(=O)[C@H](C)NC(=O)[C@H](CCCNC(=N)N)NC(=O)[C@@H](NC(=O)[C@H](CCCCN)NC(=O)[C@H](Cc1c[nH]c2ccccc12)NC(=O)[C@H](CCCNC(=N)N)NC(=O)CNC(=O)[C@H](CCC(N)=O)NC(=O)[C@@H](NC(=O)[C@@H](N)CCCNC(=N)N)C(C)C)C(C)C)C(=O)N[C@@H](CCCCN)C(=O)N[C@@H](CCCCN)C(=O)N[C@@H](CC(C)C)C(=O)N[C@@H](C)C(=O)N[C@@H](C)C(=O)N1CCC[C@H]1C(=O)N[C@@H](CO)C(=O)O [R7] (H-RVQGRWKVRASFFKRKRRFKAWRWAWRMKKLAAPS-OH)
change of antibacterial activity in mouse serum (MDR E. coli CVCC195 [1]): did not changed
metabolised at 4 h (furin; digestion 4 h): 14.5%
metabolised at 8 h (furin; digestion 8 h): 17.8%
metabolised at 18 h (furin; digestion 18 h): 29.5%
metabolised at 24 h (furin; digestion 24 h): 36.2%
metabolised at 30 h (furin; digestion 30 h): 42.5%
metabolised at 44 h (furin; digestion 44 h): 52.7%
metabolised at 53 h (furin; digestion 53 h): 57.4%
metabolised at 65 h (furin; digestion 65 h): 61.8%
target peak in mouse blood [2]: not detected
efficacy of different doses, survival, event (MDR E. coli CVCC195 [3]; 3.5 μmol/kg R7, day 1, one cell per mouse): 1
efficacy of different doses, survival, event (MDR E. coli CVCC195 [3]; 3.5 μmol/kg R7, day 7): 0
efficacy of different doses, survival, event (MDR E. coli CVCC195 [3]; 7 μmol/kg R7, day 1): 0
efficacy of different doses, survival, event (MDR E. coli CVCC195 [3]; 7 μmol/kg R7, day 2): 0
efficacy of different doses, survival, event (MDR E. coli CVCC195 [3]; 7 μmol/kg R7, day 3): 0
efficacy of different doses, survival, event (MDR E. coli CVCC195 [3]; 7 μmol/kg R7, day 4): 0
efficacy of different doses, survival, event (MDR E. coli CVCC195 [3]; 7 μmol/kg R7, day 7): 0
efficacy of different doses, survival, event (MDR E. coli CVCC195 [3]; 14 μmol/kg R7, day 1): 0
efficacy of different doses, survival, event (MDR E. coli CVCC195 [3]; 14 μmol/kg R7, day 2): 0
efficacy of different doses, survival, event (MDR E. coli CVCC195 [3]; 14 μmol/kg R7, day 3): 0
efficacy of different doses, survival, event (MDR E. coli CVCC195 [3]; 14 μmol/kg R7, day 5): 0
efficacy of different doses, survival, event (MDR E. coli CVCC195 [3]; 14 μmol/kg R7, day 7): 0
